From PubChem BioAssay AID248 (DTP/NCI, 2004)
Several values for one entry are separate records, joined by “and”; a condition that tells them apart may be missing. Equal entries are not always repeated. Toxic doses and inconclusive results are not listed. Rule as the data show it: active = T/C of 150% or more; inactive = T/C below 125%.

Tested on: L1210 leukemia ip in BDF1 mice, survival T/C
Experiment: NCI In Vivo Anticancer Drug Screen. Data for tumor model L1210 Leukemia (intraperitoneal) in B6D2F1 (BDF1) mice
Settings: endpoint: mean survival time, higher = longer survival
Method in brief: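 Read-out is survival time, reported as the treated-group measurement over the vehicle-control measurement.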

[1] = dose: 100.0 mg/kg/injection, schedule: Q04DX002 (ip), vehicle: Klucel (hydroxypropylcellulose) (HPC)
[2] = dose: 200.0 mg/kg/injection, schedule: Q04DX002 (ip), vehicle: Klucel (hydroxypropylcellulose) (HPC)
[3] = dose: 400.0 mg/kg/injection, schedule: Q04DX002 (ip), vehicle: Klucel (hydroxypropylcellulose) (HPC)
[4] = dose: 100.0 mg/kg/injection, schedule: Q01DX001 (ip), vehicle: saline
[5] = dose: 200.0 mg/kg/injection, schedule: Q01DX001 (ip), vehicle: saline
[6] = dose: 400.0 mg/kg/injection, schedule: Q01DX001 (ip), vehicle: saline
[7] = dose: 12.5 mg/kg/injection, schedule: Q01DX009 (ip), vehicle: saline with Tween-80
[8] = dose: 100.0 mg/kg/injection, schedule: Q01DX001 (ip), vehicle: saline with Tween-80
[9] = dose: 100.0 mg/kg/injection, schedule: Q04DX003 (ip), vehicle: saline with Tween-80
[10] = dose: 200.0 mg/kg/injection, schedule: Q01DX001 (ip), vehicle: saline with Tween-80
[11] = dose: 200.0 mg/kg/injection, schedule: Q04DX003 (ip), vehicle: saline with Tween-80
[12] = dose: 50.0 mg/kg/injection, schedule: Q04DX003 (ip), vehicle: Klucel (hydroxypropylcellulose) (HPC)
[13] = dose: 50.0 mg/kg/injection, schedule: Q01DX001 (ip), vehicle: saline
[14] = dose: 100.0 mg/kg/injection, schedule: Q01DX009 (ip), vehicle: Klucel (hydroxypropylcellulose) (HPC)
[15] = dose: 100.0 mg/kg/injection, schedule: Q04DX003 (ip), vehicle: Klucel (hydroxypropylcellulose) (HPC)
[16] = dose: 200.0 mg/kg/injection, schedule: Q01DX009 (ip), vehicle: Klucel (hydroxypropylcellulose) (HPC)
[17] = dose: 200.0 mg/kg/injection, schedule: Q04DX003 (ip), vehicle: Klucel (hydroxypropylcellulose) (HPC)
[18] = dose: 400.0 mg/kg/injection, schedule: Q01DX009 (ip), vehicle: Klucel (hydroxypropylcellulose) (HPC)
[19] = dose: 100.0 mg/kg/injection, schedule: Q01DX001 (ip), vehicle: Klucel (hydroxypropylcellulose) (HPC)
[20] = dose: 200.0 mg/kg/injection, schedule: Q01DX001 (ip), vehicle: Klucel (hydroxypropylcellulose) (HPC)
[21] = dose: 400.0 mg/kg/injection, schedule: Q01DX001 (ip), vehicle: Klucel (hydroxypropylcellulose) (HPC)
[22] = dose: 100.0 mg/kg/injection, schedule: Q01DX009 (ip), vehicle: saline with Tween-80
[23] = dose: 100.0 mg/kg/injection, schedule: Q01DX001 (ip), vehicle: carboxymethylcellulose (CMC)
[24] = dose: 200.0 mg/kg/injection, schedule: Q01DX001 (ip), vehicle: carboxymethylcellulose (CMC)
[25] = dose: 400.0 mg/kg/injection, schedule: Q01DX001 (ip), vehicle: carboxymethylcellulose (CMC)

Measured: T/C

O=C/C=C/c1cc([N+](=O)[O-])ccc1Cl
inactive: [1] 100 % of control | [2] 96 % of control | [3] 100 % of control

CCOP(=S)(NN=C1CCCCC1)OCC
inactive: [4] 104 % of control | [5] 101 % of control

CCCCNC(C)(C)C(SSC(c1cccs1)C(C)(C)NCCCC)c1cccs1 (centres undefined)
inactive: dose: 25.0 mg/kg/injection, schedule: Q01DX009 (ip), vehicle: saline sonified 100 % of control | dose: 50.0 mg/kg/injection, schedule: Q01DX009 (ip), vehicle: saline sonified 100 % of control | dose: 100.0 mg/kg/injection, schedule: Q01DX009 (ip), vehicle: saline sonified 96 % of control | dose: 100.0 mg/kg/injection, schedule: Q04DX003 (ip), vehicle: saline sonified 90 % of control

COc1cc(/C=C2/N=C(C)OC2=O)cc(Cl)c1OC
inactive: [4] 87 % of control | [5] 90 % of control | [6] 87 % of control

O=C(CCc1ccccc1)NC(=S)Nc1cccc([N+](=O)[O-])c1
inactive: [7] 96 % of control and 98 % of control | dose: 50.0 mg/kg/injection, schedule: Q04DX003 (ip), vehicle: saline with Tween-80 96 % of control | [8] 93 % of control | dose: 100.0 mg/kg/injection, schedule: Q04DX002 (ip), vehicle: alcohol 104 % of control | [9] 91 % of control | [10] 104 % of control | dose: 200.0 mg/kg/injection, schedule: Q04DX002 (ip), vehicle: alcohol 93 % of control and 100 % of control | [11] 86 % of control | dose: 400.0 mg/kg/injection, schedule: Q04DX002 (ip), vehicle: alcohol 96 % of control

CN(C)CCCNc1nc(-c2cc(C(F)(F)F)cc(C(F)(F)F)c2)nc(C(Cl)(Cl)Cl)n1
inactive: [1] 100 % of control | [2] 92 % of control | [3] 106 % of control

CC(C)(C)c1cc(OCC2CO2)ccc1OCC1CO1 (centres undefined)
inactive: [4] 107 % of control | [5] 107 % of control | [6] 95 % of control

CCN1CCC(CNc2cc(C)nc(/N=C(\N)Nc3cc(Cl)cc(Cl)c3)n2)C1 (centres undefined)
inactive: dose: 12.5 mg/kg/injection, schedule: Q04DX003 (ip), vehicle: Klucel (hydroxypropylcellulose) (HPC) 102 % of control | dose: 25.0 mg/kg/injection, schedule: Q04DX003 (ip), vehicle: Klucel (hydroxypropylcellulose) (HPC) 105 % of control | [12] 105 % of control

CC(C)(C)C1CCC(NN)CC1 (centres undefined)
inactive: dose: 0.78 mg/kg/injection, schedule: Q01DX009 (ip), vehicle: saline 101 % of control | dose: 1.56 mg/kg/injection, schedule: Q01DX009 (ip), vehicle: saline 100 % of control | dose: 3.12 mg/kg/injection, schedule: Q01DX009 (ip), vehicle: saline 101 % of control | dose: 6.25 mg/kg/injection, schedule: Q01DX009 (ip), vehicle: saline 95 % of control | dose: 12.5 mg/kg/injection, schedule: Q04DX003 (ip), vehicle: saline 98 % of control | dose: 25.0 mg/kg/injection, schedule: Q04DX003 (ip), vehicle: saline 98 % of control | [13] 92 % of control

Cc1cc(N(CCOS(C)(=O)=O)CCOS(C)(=O)=O)ccc1C=Nc1ccc2ccccc2c1
inactive: dose: 13.3 mg/kg/injection, schedule: Q04DX003 (ip), vehicle: Klucel (hydroxypropylcellulose) (HPC) 116 % of control | dose: 20.0 mg/kg/injection, schedule: Q04DX003 (ip), vehicle: Klucel (hydroxypropylcellulose) (HPC) 108 % of control and 117 % of control | dose: 80.0 mg/kg/injection, schedule: Q04DX003 (ip), vehicle: Klucel (hydroxypropylcellulose) (HPC) 112 % of control

Cc1ccc(O)c(CCCO)c1
inactive: [13] 97 % of control | [4] 105 % of control | [5] 94 % of control

CCOc1ccc(C2NC(=O)c3ccccc3N2)cc1 (centres undefined)
inactive: [14] 104 % of control | [15] 91 % of control | [16] 97 % of control | [17] 98 % of control | [18] 97 % of control | dose: 400.0 mg/kg/injection, schedule: Q04DX003 (ip), vehicle: Klucel (hydroxypropylcellulose) (HPC) 98 % of control

O=C(Nc1ccc(Cl)cc1)Nc1cccc(F)c1
inactive: [14] 90 % of control | [16] 94 % of control | [18] 110 % of control

O=C(Nc1ccccc1)Nn1cnc2ccccc2c1=O
inactive: [9] 89 % of control | [11] 90 % of control | dose: 400.0 mg/kg/injection, schedule: Q04DX003 (ip), vehicle: saline with Tween-80 88 % of control

O=C(c1ccccc1)c1cc2ccccc2oc1=O
inactive: [19] 103 % of control | [20] 98 % of control | [21] 90 % of control

c1cc[c]([Sn]([c]2ccccc2)([c]2ccccc2)[n]2cccc2)cc1
inactive: dose: 3.13 mg/kg/injection, schedule: Q01DX009 (ip), vehicle: saline with Tween-80 98 % of control | dose: 6.25 mg/kg/injection, schedule: Q01DX009 (ip), vehicle: saline with Tween-80 102 % of control | [7] 100 % of control | [22] 94 % of control

N#C/C(=C\c1cccc(N)c1)c1ccccc1
inactive: [8] 100 % of control | [10] 95 % of control

Cc1nc(-c2ccccc2)c(-c2ccccc2)[nH]1
inactive: dose: 50.0 mg/kg/injection, schedule: Q01DX009 (ip), vehicle: Klucel (hydroxypropylcellulose) (HPC) 99 % of control | dose: 66.0 mg/kg/injection, schedule: Q01DX009 (ip), vehicle: Klucel (hydroxypropylcellulose) (HPC) 113 % of control | [14] 111 % of control | [15] 101 % of control | dose: 150.0 mg/kg/injection, schedule: Q01DX009 (ip), vehicle: Klucel (hydroxypropylcellulose) (HPC) 92 % of control | [17] 101 % of control

Cc1ccccc1SCC#CCSc1ccccc1C
inactive: [19] 93 % of control | [20] 95 % of control | [21] 106 % of control

Cc1cccc([N+](=O)[O-])c1-c1ccccc1C(=O)O
inactive: [12] 88 % of control | [14] 93 % of control and 95 % of control | [15] 94 % of control | [16] 96 % of control and 103 % of control | [17] 100 % of control | [18] 97 % of control

CSc1ccc(NC(=O)Nc2ccc(Cl)cc2C(=O)c2ccccc2)cc1
inactive: [14] 91 % of control | [16] 88 % of control

C1CCC(N2OC23CCCCC3)CC1 (centres undefined)
inactive: [23] 92 % of control | [24] 90 % of control | [25] 92 % of control

OCCOc1cc(Cl)c(Cl)cc1Cl
inactive: dose: 25.0 mg/kg/injection, schedule: Q04DX003 (ip), vehicle: carboxymethylcellulose (CMC) 95 % of control | dose: 50.0 mg/kg/injection, schedule: Q01DX009 (ip), vehicle: carboxymethylcellulose (CMC) 93 % of control and 102 % of control | dose: 50.0 mg/kg/injection, schedule: Q04DX003 (ip), vehicle: carboxymethylcellulose (CMC) 101 % of control | dose: 100.0 mg/kg/injection, schedule: Q01DX009 (ip), vehicle: carboxymethylcellulose (CMC) 101 % of control and 103 % of control | [22] 103 % of control | dose: 100.0 mg/kg/injection, schedule: Q04DX002 (ip), vehicle: carboxymethylcellulose (CMC) 102 % of control and 103 % of control | dose: 100.0 mg/kg/injection, schedule: Q04DX003 (ip), vehicle: carboxymethylcellulose (CMC) 95 % of control | dose: 200.0 mg/kg/injection, schedule: Q01DX009 (ip), vehicle: saline with Tween-80 87 % of control | dose: 200.0 mg/kg/injection, schedule: Q04DX002 (ip), vehicle: carboxymethylcellulose (CMC) 103 % of control

N#Cc1c(N)n(C2OC(CO)C(O)C2O)c2ncnc(N)c12 (centres undefined)
inactive: dose: 1.0 mg/kg/injection, schedule: Q01DX005 (ip), vehicle: saline 115 % of control | dose: 2.0 mg/kg/injection, schedule: Q01DX005 (ip), vehicle: saline 120 % of control

O/N=C(\c1ccccc1)C(O)c1ccccc1 (centres undefined)
inactive: dose: 50.0 mg/kg/injection, schedule: Q01DX001 (ip), vehicle: carboxymethylcellulose (CMC) 113 % of control | [23] 105 % of control | [24] 105 % of control | [25] 102 % of control
